PubChem BioAssay (NCI)
“And” between values parts separate entries of the source, which are not always exact repeats. Equal entries are not always repeated.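 How tested: cells in 96-well plates exposed to compound for 48 hours at five concentrations. The concentration for 50% growth inhibition is given as GI50. TGI denotes the concentration required for complete inhibition of growth.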

How the values were obtained:
Test in all cases: NCI anticancer screen, dose series, 48 h
[1] = test system: UACC-257 melanoma
[2] = test system: OVCAR-8 ovarian
[3] = test system: A498 renal
[4] = test system: MALME-3M melanoma
[5] = test system: SF-268 CNS
[6] = test system: RPMI-8226 leukemia
[7] = test system: HCT-116 colon
[8] = test system: A549 NSCLC
[9] = test system: SK-OV-3 ovarian
[10] = test system: HCT-15 colon

| SMILES | GI50 [1] | TGI [1] | GI50 [2] | TGI [2] | GI50 [3] | TGI [3] | GI50 [4] | TGI [4] | GI50 [5] | TGI [5] | GI50 [6] | TGI [6] | GI50 [7] | TGI [7] | GI50 [8] | TGI [8] | GI50 [9] | TGI [9] | GI50 [10] | TGI [10] |
| --- | --- | --- | --- | --- | --- | --- | --- | --- | --- | --- | --- | --- | --- | --- | --- | --- | --- | --- | --- | --- |
| O=C(/C=C/OC(=O)c1cccc(Cl)c1)c1ccc(Cl)cc1 | 97.6 µM | > 100 µM | 46.4 µM | > 100 µM | > 40.3 µM | 96.9 µM | 2.32 µM | 39 µM | 41.9 µM | > 100 µM | 30.5 µM | > 100 µM | 31.3 µM | > 100 µM | > 100 µM | > 100 µM | 35.8 µM | > 88.4 µM | 50.7 µM | > 100 µM |
| Cc1cc(Cl)ccc1NC(=O)C(=O)C(C(=O)c1ccccc1)C1OC(=O)c2ccccc21 (stereo not given) |  | > 100 µM |  | > 100 µM |  | > 100 µM |  | > 100 µM |  | > 100 µM |  | > 100 µM |  | > 100 µM |  | > 100 µM |  | > 100 µM |  | > 100 µM |
| C/C(=N/Nc1nc(C)cc(=O)[nH]1)C(=O)O |  | > 100 µM |  | > 100 µM |  | > 100 µM |  | > 100 µM |  | > 100 µM |  | > 100 µM |  | > 100 µM |  | > 100 µM |  | > 100 µM |  | > 100 µM |
| CCc1cccc(C)c1NC(=S)NC(=O)c1ccccc1C(=O)NC(=S)Nc1c(C)cccc1CC |  | > 100 µM |  | > 100 µM |  | > 100 µM |  | > 100 µM |  | > 100 µM |  | > 100 µM |  | > 100 µM |  | > 100 µM |  | > 100 µM |  | > 100 µM |
| CCOP1(=O)C=C(C)C(=C(Cl)Cl)C(C)=C1 (stereo not given) | 11.5 µM | 89 µM |  | > 100 µM |  | 76.3 µM |  | 47.3 µM | 15.8 µM | > 100 µM |  | 28.4 µM | 3.33 µM | 7.13 µM and 13.3 µM |  | 58.8 µM |  | > 100 µM |  | 36.9 µM |
| O=C1NC(c2cccc(OCc3ccccc3)c2)Nc2ccccc21 (stereo not given) |  | 50.7 µM |  | 27.5 µM |  | 4.68 µM |  | 35 µM |  | > 51 µM |  | 1.07 µM |  | 1.93 µM |  | > 49.6 µM |  | 5.87 µM |  | 0.702 µM |
| COC1=CC(=O)c2nc(Cl)ccc2C1=O | 1.68 µM | 3.12 µM | 1.68 µM | 3.11 µM | 12 µM | 24.3 µM | 1.72 µM | 3.38 µM | 1.65 µM | 3.19 µM | 2.59 µM | 7.9 µM | 1.75 µM | 3.24 µM | 12.8 µM | 26.1 µM | 11 µM | 23.3 µM | 2.03 µM | 4.55 µM |
| O=C1C2C3C=CC(C2C(=O)N1CN1CCSCC1)C1C2C(=O)N(CN4CCSCC4)C(=O)C2C31 (stereo not given) |  | > 100 µM |  | > 100 µM |  | > 100 µM |  | > 100 µM |  | > 91.6 µM | 32.2 µM | 61.7 µM |  | > 55.9 µM | 77.1 µM | > 100 µM |  | > 100 µM |  | > 59.7 µM |
| CN1CCN(Cc2ccc(NC(=O)c3cncc(C#Cc4cnc(N)c5cnccc45)c3)cc2C(F)(F)F)CC1 | 0.161 µM | 1.45 µM | 0.253 µM | 8.09 µM | 0.12 µM | 0.363 µM | 0.036 µM | 0.176 µM | 0.234 µM | 6.93 µM | 0.216 µM | 3.25 µM | 0.142 µM | 1.74 µM | 0.511 µM | 7.79 µM | 0.181 µM | 6.21 µM | 0.721 µM | 6.31 µM |
| C/C(=N\NC(=O)CC(=O)N(C(=O)c1ccc(Cl)cc1)c1ccc(C)cc1)c1ccccc1O |  | > 100 µM |  | > 100 µM |  | > 100 µM |  | > 100 µM |  | > 100 µM |  | > 100 µM |  | > 100 µM |  | > 100 µM |  | > 100 µM |  | > 100 µM |
| CCOC(=O)CNc1nnnn1C1OC(CO)C(O)C1O (stereo not given) |  | > 100 µM |  | > 100 µM |  | > 100 µM |  | > 100 µM |  | > 100 µM |  | > 100 µM |  | > 100 µM |  | > 100 µM |  | > 100 µM |  | > 100 µM |
| FC(F)(F)c1cc(Nc2ccc3cc(OCCCN4CCOCC4)ccc3n2)ccc1Cl | 1.53 µM | 3.32 µM | 2.87 µM | 10 µM | 1.47 µM | 6.27 µM | 1.67 µM | 4.34 µM | 1.9 µM | 4.71 µM | 1.11 µM | 6.61 µM | 1.65 µM | 3.14 µM | 1.93 µM | 4.3 µM | 2.21 µM | 4.87 µM | 1.28 µM | 3.08 µM |
| COc1ccc(/C=C2\c3cc(OC)c(OC)c(OC)c3CC[C@@H]2O)cc1F | > 100 µM | > 100 µM | 0.598 µM | 93.4 µM | 0.152 µM | 0.697 µM | 0.261 µM | > 100 µM | 0.748 µM | > 100 µM | 1.82 µM | > 100 µM | 0.331 µM | > 100 µM | 0.693 µM | > 100 µM | 0.306 µM | 61.1 µM | 0.19 µM | > 100 µM |
| Cn1c2ccccc2c2c(=O)n(CCCC(=O)OC(=NC3CCCCC3)NC3CCCCC3)c3c(-c4ccccc4)nnn3c21 | > 100 µM | > 100 µM | > 100 µM | > 100 µM | 65.8 µM | > 100 µM | > 100 µM | > 100 µM | 98.2 µM | > 100 µM | > 100 µM | > 100 µM | 91.8 µM | > 100 µM | > 100 µM | > 100 µM | > 100 µM | > 100 µM | > 100 µM | > 100 µM |
| CC1(C)N=C(N)N=C(N)N1c1cccc(Br)c1 | > 92.4 µM | > 100 µM | 0.228 µM | > 100 µM | 15.9 µM | > 100 µM | 33.2 µM | > 100 µM | 0.0541 µM | > 100 µM | 6.81 µM | > 100 µM | 0.069 µM | > 100 µM | 0.469 µM | > 100 µM | 1.69 µM | > 100 µM | 1.42 µM | > 100 µM |
| O=[N+]([O-])c1cc2c([N+](=O)[O-])cccc2o1 |  | 21.8 µM |  | 38.8 µM |  | 43.5 µM |  | 30.1 µM |  | 31.1 µM |  | 11.4 µM |  | > 100 µM |  | > 100 µM |  | 31.3 µM |  | 23 µM |
